In the assay the target is T1, SCD1 (Rattus norvegicus, UniProt P07308).
T1 construct: The resuspended microsome fraction was stored at −80° C; from tissue; host or cells: liver microsomes of male Wistar rats fed a carbohydrate-rich, low-fat diet
T1 sequence (P07308 1-358): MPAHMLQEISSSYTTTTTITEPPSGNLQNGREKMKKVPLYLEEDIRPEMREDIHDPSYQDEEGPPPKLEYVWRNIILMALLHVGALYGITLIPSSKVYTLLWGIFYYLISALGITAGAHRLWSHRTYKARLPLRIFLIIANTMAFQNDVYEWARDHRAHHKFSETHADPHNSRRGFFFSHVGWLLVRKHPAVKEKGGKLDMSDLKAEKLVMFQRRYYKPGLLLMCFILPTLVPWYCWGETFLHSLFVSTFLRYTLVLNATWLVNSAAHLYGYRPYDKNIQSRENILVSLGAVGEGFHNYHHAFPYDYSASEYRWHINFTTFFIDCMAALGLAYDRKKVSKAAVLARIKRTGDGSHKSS
Briefly: stearoyl-CoA desaturase (SCD1) activity in rat liver microsomes, TLC assay with 1-14C-labeled stearic acid. In kind it is biochemical. The conditions noted are these: inhibition of SCD1 activity; compound at 10 μM/l; 15 μg rat liver microsomes (male Wistar rats); 37° C., 1 h. The procedure: The efficacy of the inventive compounds of the formula I was tested with microsomal enzymes in the following assay system:
The livers of male Wistar rats which (to induce the expression of SCD1) had been fed with a carbohydrate-rich, low-fat diet were homogenized with a Potter tissue homogenizer and differential centrifugation in a buffer which contained 250 mM/l of sucrose and 5 mM/l of HEPES (pH 7.0). The resuspended microsome fraction was stored at −80° C. The stearoyl-CoA desaturase activity was determined in a thin-film chromatography assay with 1-^14C-labeled stearic acid. In short, the particular inventive compounds (in DMSO in a final concentration of 1% [v/v]) were incubated with 15 μg of the rat liver microsomes in 200 μl of assay buffer (6 mM/l of MgCl2, 250 mM/l of sucrose, 150 mM/l of KCl, 40 mM/l of NaF, 100 mM/l of Na2HPO4 (pH7.4), 1.3 mM/l of ATP, 1.5 mM/l of reduced glutathione, 60 uM/l of CoA, 0.33 mM/l of nicotinamide and 0.94 mM/l of NADH) at room temperature for 10 min. 0.5 μCi [1-^14C]-stearic acid (55 mCi/mmol) was added, and the mixture was incubated at 37° C. for 1 h. The radioactively labeled fatty acids were subsequently hydrolyzed at 65° C. with 2.5 M KOH/MeOH:H2O (4:1) for 4 h, protonated with 280 μl of formic acid and extracted with 500 μl of hexane. The TLC plates were immersed into 10% AgNO3 and heat-activated before use. 150 μl of the hexane phase were applied to the plates, and the TLC plates were developed in buffer (chloroform:methanol:acetic acid:water [90:8:1:0.8]) and dried. The plates were read off in a phosphoimager to quantify the SCD1 activity.
The person skilled in the art can modify this assay in various aspects to determine the inhibition of the stearoyl-CoA desaturase activity.

Compound `CC(C)CCNC(=O)c1ccc(N2CC3=C(CN(C(=O)c4ccccc4C(F)(F)F)C3)C2)nc1` [Example 10, N-(3-Methylbutyl)-6-[5-(2-trifluoromethylbenzoyl)-3,4,5,6-tetrahydro-1H-pyrrolo[3,4-c]-pyrrol-2-yl]nicotinamide] returned an inhibition at 10 µM of 100%.

As for `CN(Cc1nccs1)C(=O)c1ccc(N2CC3=C(CN(C(=O)c4ccccc4C(F)(F)F)C3)C2)nc1` [Example 16, N-Methyl-N-thiazol-2-ylmethyl-6-[5-(2-trifluoromethylbenzoyl)-3,4,5,6-tetrahydro-1H-pyrrolo[3,4-c]pyrrol-2-yl]nicotinamide], at 10 µM the inhibition was 100%.

Consider `O=C(NCCC1CCCC1)c1ccc(N2CC3=C(CN(C(=O)c4ccccc4C(F)(F)F)C3)C2)nc1` [Example 22, N-(2-Cyclopentylethyl)-6-[5-(2-trifluoromethylbenzoyl)-3,4,5,6-tetrahydro-1H-pyrrolo-[3,4-c]pyrrol-2-yl]nicotinamide], for which the inhibition at 10 µM stood at 100%.

`O=C(NCCCc1ccccc1)c1cnc(N2CC3=C(CN(C(=O)c4ccccc4C(F)(F)F)C3)C2)s1` [Example 9, N-(3-Phenylpropyl)-2-[5-(2-trifluoromethylbenzoyl)-3,4,5,6-tetrahydro-1H-pyrrolo[3,4-c]-pyrrol-2-yl]thiazole-5-carboxamide]: 10 µM produced 26% inhibition.

In turn, `O=C(NCc1nccs1)c1ccc(N2CC3=C(CN(C(=O)c4ccccc4C(F)(F)F)C3)C2)nc1` [Example 15, N-Thiazol-2-ylmethyl-6-[5-(2-trifluoromethylbenzoyl)-3,4,5,6-tetrahydro-1H-pyrrolo-[3,4-c]pyrrol-2-yl]nicotinamide] displayed an inhibition at 10 µM of 100%.

`O=C(NCCC1CC1)c1cnc(N2CC3=C(CN(C(=O)c4ccccc4C(F)(F)F)C3)C2)s1` [Example 2, N-(2-Cyclopropylethyl)-2-[5-(2-trifluoromethylbenzoyl)-3,4,5,6-tetrahydro-1H-pyrrolo-[3,4-c]pyrrol-2-yl]thiazole-5-carboxamide] had an inhibition at 10 µM of 31%.

Turning to `O=C(NCCC1CC1)c1ccc(N2CC3=C(CN(C(=O)c4ccccc4C(F)(F)F)C3)C2)nn1` [Example 19, N-(2-Cyclopropylethyl)-6-[5-(2-trifluoromethylbenzoyl)-3,4,5,6-tetrahydro-1H-pyrrolo-[3,4-c]pyrrol-2-yl]pyridazine-3-carboxamide], the inhibition at 10 µM was 100%.

For `CCOC(=O)c1cnc(N2CC3=C(CN(C(=O)c4ccccc4C(F)(F)F)C3)C2)s1` [Example 1, Ethyl 2-[5-(2-trifluoromethylbenzoyl)-3,4,5,6-tetrahydro-1H-pyrrolo[3,4-c]pyrrol-2-yl]thiazole-5-carboxylate], the inhibition at 10 µM came out at 65%.

As for `CCC(O)CCNC(=O)c1ccc(N2CC3=C(CN(C(=O)c4cc(OC)ccc4Br)C3)C2)nn1` (centres unmarked) [Example 18, N-(3-Hydroxypentyl)-6-[5-(2-bromo-5-methoxybenzoyl)-3,4,5,6-tetrahydro-1H-pyrrolo-[3,4-c]pyrrol-2-yl]pyridazine-3-carboxamide], the inhibition at 10 µM stood at 38%.

As for `O=C(NCCC1CC1)c1ccc(N2CC3=C(CN(C(=O)c4ccccc4C(F)(F)F)C3)C2)nc1` [Example 14, N-(2-Cyclopropylethyl)-6-[5-(2-trifluoromethylbenzoyl)-3,4,5,6-tetrahydro-1H-pyrrolo-[3,4-c]pyrrol-2-yl]nicotinamide], the inhibition at 10 µM amounted to 100%.

For the compound `O=C(NCCc1ccccc1)c1ccc(N2CC3=C(CN(C(=O)c4ccccc4C(F)(F)F)C3)C2)nc1` [Example 13, N-Phenethyl-6-[5-(2-trifluoromethylbenzoyl)-3,4,5,6-tetrahydro-1H-pyrrolo[3,4-c]pyrrole-2-yl]nicotinamide], the inhibition at 10 µM stood at 100%.

With `O=C(NCc1cncs1)c1ccc(N2CC3=C(CN(C(=O)c4ccccc4C(F)(F)F)C3)C2)nc1` [Example 20, N-Thiazol-5-ylmethyl-6-[5-(2-trifluoromethylbenzoyl)-3,4,5,6-tetrahydro-1H-pyrrolo-[3,4-c]pyrrol-2-yl]nicotinamide], 10 µM produced 100% inhibition.

Turning to `O=C(NCC1CCCC1)c1ccc(N2CC3=C(CN(C(=O)c4ccccc4C(F)(F)F)C3)C2)nc1` [Example 21, N-Cyclopentylmethyl-6-[5-(2-trifluoromethylbenzoyl)-3,4,5,6-tetrahydro-1H-pyrrolo-[3,4-c]pyrrol-2-yl]nicotinamide], the inhibition at 10 µM worked out at 100%.

Regarding `O=C(NCC1CC1)c1ccc(N2CC3=C(CN(C(=O)c4ccccc4C(F)(F)F)C3)C2)nc1` [Example 17, N-Cyclopropylmethyl-6-[5-(2-trifluoromethylbenzoyl)-3,4,5,6-tetrahydro-1H-pyrrolo-[3,4-c]pyrrol-2-yl]nicotinamide], the inhibition at 10 µM is 97%.

These data come from patent US8003677B2, “2-heteroaryl-pyrrolo[3,4-c]pyrrole derivatives and their use as SCD inhibitors” (Sanofi-Aventis, priority 2007, dated 2011).
